The test system of experiment [1] is phosphorylated AKT Ser473 (pAKT S473), mTORC2 activity, PC3 cells. Put plainly: mTOR target engagement assay, immunofluorescent cell-based, pAKT S473 readout (mTORC2 activity). A digest of the protocol: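 After blocking, cells were stained overnight at 4 °C with anti-pAKT S473 antibody, then a fluorescent secondary; inhibition was read as reduced fluorescence intensity.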

For experiment [2], the system named is phosphorylated 4E-BP1 Thr37/46 (p4E-BP1 Thr37/46), mTORC1 activity, PC3 cells. The experiment in a line: mTOR target engagement assay, immunofluorescent cell-based, p4E-BP1 Thr37/46 readout (mTORC1 activity). Conditions: read-out: p4E-BP1 Thr37/46 IC50. Put shortly: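 Read-out is fluorescence intensity of immunostained p4E-BP1 Thr37/46 in fixed PC3 cells, fitted to a logistic curve for IC50 with DMSO-only wells as top. Cells had been exposed to serial compound dilutions for ninety minutes at 37° C in 5% FBS medium with 0.25% DMSO.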

[3] abbreviates: Homo sapiens, PC-3, Table 3-1, PC3 cells.
Where [4] appears, read: Homo sapiens, PC-3, PC3 cells, compound treatment ninety minutes at 37° C.

pIC50: −log10 of the molar value. Where two headings read alike, the source gives them in different places.

`CC(=O)c1c([C@H]2CC3CC[C@H](C2)N3C(=O)c2nnc[nH]2)nc2c(-c3ccc(C(O)C(F)(F)F)nc3)cnn2c1N` (stereo partly drawn) [Compound 7.65, 1-(5-((1R,3s,5S)-8-(4H-1,2,4-triazole-3-carbonyl)-8-azabicyclo[3.2.1]octan-3-yl)-7-amino-3-(6-(2,2,2-trifluoro-1-hydroxyethyl)pyridin-3-yl)pyrazolo[1,5-a]pyrimidin-6-yl)ethanone]: the pIC50 is 6.00 to 7.00 in experiment [1] (Homo sapiens, PC-3, PC3 cells) and 6.00 to 7.00 in experiment [2] (Homo sapiens, PC-3, PC3 cells).
Regarding `CS(=O)(=O)c1c([C@@H]2C[C@H]3CC[C@@H](C2)N3C(=O)c2ccc(O)cn2)nc2c(-c3ccc(-c4ccccc4)nc3)cnn2c1N` [Compound 3.16, ((1R,3s,5S)-3-(7-amino-6-(methylsulfonyl)-3-(6-phenylpyridin-3-yl)pyrazolo[1,5-a]pyrimidin-5-yl)-8-azabicyclo[3.2.1]octan-8-yl)(5-hydroxypyridin-2-yl)methanone], the pIC50 in experiment [1] (setting [3]) is 7.00 to 9.00; in experiment [2] (setting [3]) it was 6.00 to 7.00.
In the case of `CC(=O)c1c([C@@H]2C[C@H]3CC[C@@H](C2)N3C(=O)C(C)(CO)CO)nc2c(-c3ccc(-c4ccn(C)n4)nc3)cnn2c1N` [Compound 1.1.56, 1-((1R,3s,5S)-3-(6-acetyl-7-amino-3-(6-(1-methyl-1H-pyrazol-3-yl)pyridin-3-yl)pyrazolo[1,5-a]pyrimidin-5-yl)-8-azabicyclo[3.2.1]octan-8-yl)-3-hydroxy-2-(hydroxymethyl)-2-methylpropan-1-one], the pIC50 in experiment [1] (setting [4]) and in experiment [2] (setting [4]) was 6.00 to 7.00 throughout.
Consider `Nc1c(C2CC2)c([C@@H]2C[C@H]3CC[C@@H](C2)N3C(=O)NCCO)nc2c(-c3ccc(-c4ccccc4)nc3)cnn12` [Compound 4.8, (1R,3s,5S)-3-(7-amino-6-cyclopropyl-3-(6-phenylpyridin-3-yl)pyrazolo[1,5-a]pyrimidin-5-yl)-N-(2-hydroxyethyl)-8-azabicyclo[3.2.1]octane-8-carboxamide], for which the pIC50 in experiment [1] (setting [4]) is 7.00 to 9.00; in experiment [2] (setting [4]), 6.00 to 7.00.
For the compound “((1R,3s,5S)-3-(7-amino-3-(6-(1-methyl-(D3)-1H-pyrazol-3-yl)pyridin-3-yl)-6-(methylsulfonyl)pyrazolo[1,5-a]pyrimidin-5-yl)-8-azabicyclo[3.2.1]octan-8-yl)(4H-1,2,4-triazol-3-yl)methanone [Compound 3.70]”, the pIC50 was 6.00 to 7.00 in experiment [1] (Table 3-1, PC3 cells) and 6.00 to 7.00 in experiment [2] (Table 3-1, PC3 cells).
Turning to `CS(=O)(=O)c1c([C@@H]2C[C@H]3CC[C@@H](C2)N3C(=O)c2nnc[nH]2)nc2c(-c3ccc(-c4ccc(OC(F)F)cc4)nc3)cnn2c1N` [Compound 3.55, ((1R,3s,5S)-3-(7-amino-3-(6-(4-(difluoromethoxy)phenyl)pyridin-3-yl)-6-(methylsulfonyl)pyrazolo[1,5-a]pyrimidin-5-yl)-8-azabicyclo[3.2.1]octan-8-yl)(4H-1,2,4-triazol-3-yl)methanone], the pIC50 in experiment [1] (setting [3]) and in experiment [2] (setting [3]) was 7.00 to 9.00 in each case.
With `CS(=O)(=O)c1c([C@H]2CC3CC[C@H](C2)N3C(=O)c2cn[nH]n2)nc2c(-c3cnn(-c4ccccc4)c3)cnn2c1N` [Compound 3.176, ((1R,3s,5S)-3-(7-amino-6-(methylsulfonyl)-3-(1-phenyl-1H-pyrazol-4-yl)pyrazolo[1,5-a]pyrimidin-5-yl)-8-azabicyclo[3.2.1]octan-8-yl)(2H-1,2,3-triazol-4-yl)methanone], the pIC50 in experiment [1] (setting [3]) and in experiment [2] (setting [3]) was 6.00 to 7.00 in each case.
For the compound `CS(=O)(=O)c1c([C@@H]2C[C@H]3CC[C@@H](C2)N3C(=O)CO)nc2c(-c3ccc(C(N)=O)c(F)c3)cnn2c1N` [Compound 3.156, 4-(7-amino-5-((1R,3a,5S)-8-(2-hydroxyacetyl)-8-azabicyclo[3.2.1]octan-3-yl)-6-(methylsulfonyl)pyrazolo[1,5-a]pyrimidin-3-yl)-2-fluorobenzamide], the values for the pIC50 in experiment [1] (setting [3]) and in experiment [2] (setting [3]) were under 5.00 and 5.00 to 6.00, respectively.
In the case of `CC(=O)c1c([C@@H]2C[C@H]3CC[C@@H](C2)N3C(=O)CO)nc2c(-c3ccc(-c4cc[nH]n4)nc3)cnn2c1N` [Compound 1.1.75, 1-((1R,3s,5S)-3-(3-(6-(1H-pyrazol-3-yl)pyridin-3-yl)-6-acetyl-7-aminopyrazolo[1,5-a]pyrimidin-5-yl)-8-azabicyclo[3.2.1]octan-8-yl)-2-hydroxyethanone], the pIC50 in experiment [1] (setting [4]) and in experiment [2] (setting [4]) was 7.00 to 9.00 throughout.
Take `CC(=O)c1c([C@@H]2C[C@H]3CC[C@@H](C2)N3C(=O)CO)nc2c(-c3ccc(C(C)(C)O)nc3)cnn2c1N` [Compound 7.8, 1-((1R,3s,5S)-3-(6-acetyl-7-amino-3-(6-(2-hydroxypropan-2-yl)pyridin-3-yl)pyrazolo[1,5-a]pyrimidin-5-yl)-8-azabicyclo[3.2.1]octan-8-yl)-2-hydroxyethanone]: the pIC50 in experiment [1] (setting [4]) and in experiment [2] (setting [4]) was 6.00 to 7.00 each time.
With `Nc1c(C2CC2)c([C@@H]2C[C@H]3CC[C@@H](C2)N3C(=O)c2nnc[nH]2)nc2c(-c3ccc(-c4ccc(OC(F)F)cc4)nc3)cnn12` [Compound 4.15, ((1R,3s,5S)-3-(7-amino-6-cyclopropyl-3-(6-(4-(difluoromethoxy)phenyl)pyridin-3-yl)pyrazolo[1,5-a]pyrimidin-5-yl)-8-azabicyclo[3.2.1]octan-8-yl)(4H-1,2,4-triazol-3-yl)methanone], the pIC50 in experiment [1] (setting [4]) and in experiment [2] (setting [4]) was 6.00 to 7.00 each time.
Regarding `CC(=O)c1c([C@@H]2C[C@H]3CC[C@@H](C2)N3C(=O)c2nnc[nH]2)nc2c(-c3ccc(-c4cccnc4F)nc3)cnn2c1N` [Compound 1.1.62, 1-(5-((1R,3s,5S)-8-(4H-1,2,4-triazole-3-carbonyl)-8-azabicyclo[3.2.1]octan-3-yl)-7-amino-3-(2′-fluoro-2,3′-bipyridin-5-yl)pyrazolo[1,5-a]pyrimidin-6-yl)ethanone], the pIC50 in experiment [1] (setting [4]) and in experiment [2] (setting [4]) was 7.00 to 9.00 in each case.
As to `CC(=O)c1c([C@@H]2C[C@H]3CC[C@@H](C2)N3C(=O)c2nnc(N)[nH]2)nc2c(-c3ccc(C(O)(C(F)(F)F)C(F)(F)F)nc3)cnn2c1N` [Compound 7.78, 1-(7-amino-5-((1R,3s,5S)-8-(5-amino-4H-1,2,4-triazole-3-carbonyl)-8-azabicyclo[3.2.1]octan-3-yl)-3-(6-(1,1,1,3,3,3-hexafluoro-2-hydroxypropan-2-yl)pyridin-3-yl)pyrazolo[1,5-a]pyrimidin-6-yl)ethanone], the pIC50 in experiment [1] (Homo sapiens, PC-3, PC3 cells) was 6.00 to 7.00; in experiment [2] (Homo sapiens, PC-3, PC3 cells), 6.00 to 7.00.
`CC(=O)c1c([C@@H]2C[C@H]3CC[C@@H](C2)N3C(=O)Cc2nnn[nH]2)nc2c(-c3ccc(-c4ccccc4)nc3)cnn2c1N` [Compound 1.1.20, 1-((1R,3s,5S)-3-(6-acetyl-7-amino-3-(6-phenylpyridin-3-yl)pyrazolo[1,5-a]pyrimidin-5-yl)-8-azabicyclo[3.2.1]octan-8-yl)-2-(1H-tetrazol-5-yl)ethanone]: the pIC50 was 6.00 to 7.00 in experiment [1] (setting [4]) and 5.00 to 6.00 in experiment [2] (setting [4]).
As for `Cn1cc(-c2ccc(-c3cnn4c(N)c(S(C)(=O)=O)c([C@@H]5C[C@H]6CC[C@@H](C5)N6C(=O)c5nnc[nH]5)nc34)cn2)cn1` [Compound 3.106, ((1R,3s,5S)-3-(7-amino-3-(6-(1-methyl-1H-pyrazol-4-yl)pyridin-3-yl)-6-(methylsulfonyl)pyrazolo[1,5-a]pyrimidin-5-yl)-8-azabicyclo[3.2.1]octan-8-yl)(4H-1,2,4-triazol-3-yl)methanone], the pIC50 in experiment [1] (setting [3]) and in experiment [2] (setting [3]) was 7.00 to 9.00 throughout.
`CC(=O)c1c(C2CC3CCC(C2)N3C(=O)c2c[nH]nn2)nc2c(-c3ccc(-c4ccccc4)nc3)cnn2c1N` [Compound 1.1.21, 1-(5-((1R,3s,5S)-8-(1H-1,2,3-triazole-5-carbonyl)-8-azabicyclo[3.2.1]octan-3-yl)-7-amino-3-(6-phenylpyridin-3-yl)pyrazolo[1,5-a]pyrimidin-6-yl)ethanone]: the pIC50 in experiment [1] (setting [4]) and in experiment [2] (setting [4]) was 7.00 to 9.00 throughout.
Consider `CC(=O)c1c([C@@H]2C[C@H]3CC[C@@H](C2)N3C(=O)c2nnc(C)[nH]2)nc2c(-c3ccc(-c4ccc(F)cc4)nc3)cnn2c1N` [Compound 1.1.160, 1-(7-amino-3-(6-(4-fluorophenyl)pyridin-3-yl)-5-((1R,3s,5S)-8-(5-methyl-4H-1,2,4-triazole-3-carbonyl)-8-azabicyclo[3.2.1]octan-3-yl)pyrazolo[1,5-a]pyrimidin-6-yl)ethanone], for which the pIC50 in experiment [1] (setting [4]) was 7.00 to 9.00; in experiment [2] (setting [4]) it was 6.00 to 7.00.
For `CS(=O)(=O)c1c([C@@H]2C[C@H]3CC[C@@H](C2)N3C(=O)c2cc(N)n[nH]2)nc2c(-c3ccc(-c4ccccc4)nc3)cnn2c1N` [Compound 3.75, (3-amino-1H-pyrazol-5-yl)((1R,3s,5S)-3-(7-amino-6-(methylsulfonyl)-3-(6-phenylpyridin-3-yl)pyrazolo[1,5-a]pyrimidin-5-yl)-8-azabicyclo[3.2.1]octan-8-yl)methanone], the pIC50 in experiment [1] (setting [3]) and in experiment [2] (setting [3]) was 7.00 to 9.00 throughout.
Regarding `Cn1ccc(-c2ccc(-c3cnn4c(N)c(S(C)(=O)=O)c([C@@H]5C[C@H]6CC[C@@H](C5)N6C(=O)c5nnc[nH]5)nc34)cn2)n1` [Compound 3.40, ((1R,3s,5S)-3-(7-amino-3-(6-(1-methyl-1H-pyrazol-3-yl)pyridin-3-yl)-6-(methylsulfonyl)pyrazolo[1,5-a]pyrimidin-5-yl)-8-azabicyclo[3.2.1]octan-8-yl)(4H-1,2,4-triazol-3-yl)methanone], the pIC50 in experiment [1] (setting [3]) and in experiment [2] (setting [3]) was 7.00 to 9.00 throughout.

For the origin of these results see patent US9227971B2, “Pyrazolo[1,5-a]pyrimidine compounds as mTOR inhibitors” (Merck Sharp & Dohme Corp., priority 2010, dated 2016).
